In US4962224A, “N-naphthoylglycines as aldose reductase inhibitors” (American Home Products Corporation, priority 1989, dated 1990):
“And” between values parts separate entries of the source, which are not always exact repeats. Equal entries are not always repeated.

Tests used:
[1] = tested on: Sciatic Nerve Polyol Accumulation; assay: Two-Week Streptozocin - Diabetic Rat Model, lowering of sciatic nerve polyol accumulation; assay type: in vivo, rat (Sprague-Dawley); conditions: gavage, 14 days, STZ diabetic rats
Text: A second in vivo model examined the effect of the compounds of the present invention on sorbitol accumulation in the tissues of 14-day streptozocin (STZ) (Upjohn) diabetic rats.
In each of the studies male Sprague-Dawley rats from Charles River Labs, Kingston, N.Y., weighing 200 to 250 g, were used. The animals were weighed and observed for 5 days prior to the start of the study.
In each study the rats were randomly assigned by weight into groups of 15 animals except for group I which contained 8 animals. The groups were treated as follows:
Group II: STZ, 110 mg/kg i.p.
Group IV: STZ, 110 mg/kg i.p. followed by various doses of a compound of the present invention given by gavage for 14 days, beginning on the day of induction of diabetes.
Following an overnight fast (water ad lib) the animals in groups II-IV were given by i.p. injection 110 mg STZ per kg body weight. The STZ was dissolved in cold citric acid, 0.03M, pH 4.5 and injected within 5 minutes of being dissolved. Control rats (group I) were injected with buffer only.
Two days after STZ injection plasma glucose levels (from the tail vein) were determined following a 4 hour fast. Excluded from the study were animals whose plasma glucose was below 300 mg/dl.
On the morning of the 14th day following STZ injection the animals were fasted 4 hours prior to sacrificing by decapitation. The blood was collected into heparin containing tubes and placed on ice. Both lenses and sciatic nerves were removed immediately, weighed, frozen, and stored at -20° C. until analyzed for sorbitol. The RBCs were collected by centrifugation, the plasma was removed and the cells were washed once with 10 volumes of cold saline. The washed packed RBCs were divided into 1 mL aliquots, extracted with cold perchloric acid and the acid extracts were stored at -20° C. until analyzed for sorbitol.

[2] = tested on: dulcitol accumulation; assay: lowering of dulcitol (galactitol) accumulation in tissues of galactosemic rats (Table I, IN VIVO); parameters: species or system rat (Sprague-Dawley); conditions: for % Lowering dulcitol accumulation IN VIVO, D: diaphragm; for % Lowering dulcitol accumulation IN VIVO, D / % Lowering dulcitol accumulation IN VIVO, L: galactosemic rats, 4 days; for % Lowering dulcitol accumulation IN VIVO, L: lens
Text: Such experiments are exemplified hereinbelow after the listing of the following general comments pertaining to these experiments:
(a) Four or more groups of six male rats, […], Sprague-Dawley strain, were used. The first group, the control group, was fed a mixture of laboratory chow (rodent Laboratory Chow, Purina) and […] at 20% (w/w %) concentration. […] The test compound was either admixed to the diet or administered by gavage. In experiments involving compound administration in the diet, the average dose administered was calculated from the actual food intake of the animals in each group. The concentration of galactose in the diet of the treated groups was the same as that for the untreated galactosemic group.
(b) After four days, the animals were killed by decapitation. The eyeballs were removed and punctured with a razor blade; the freed lenses were rolled gently on filter paper and weighed. The sciatic nerves were dissected as completely as possible and weighed. Both tissues when frozen can be kept up to two weeks before being analyzed for galactitol.
Only two minor reagent changes were made: (a) the rinsing mixture was an aqueous 5% (w/v) trichloroacetic acid solution and (b) the stock solution was prepared by dissolving 25 mg of dulcitol in 100 mL of an aqueous trichloroacetic acid solution. [N.B.: For each experiment the average value found in the tissue from rats fed the glucose diet was subtracted from the individual values found in the corresponding tissue in galactose-fed rats to obtain the amount of polyol accumulated.]
The figures under L, N, and D represent the percentage decrease of galactitol accumulation in the tissues of the lens, sciatic nerve, and diaphragm, respectively, for treated rats as compared to untreated rats.

[3] = target: T1, aldose reductase (Bos taurus, UniProt P16116); assay: aldose reductase inhibiting effects in vitro (Table I, IN VITRO); assay type: biochemical, bovine (lens); conditions: read-out: % Inhibition IN VITRO
T1 construct: preparation of the enzyme from bovine lens; from tissue; host or cells: bovine lens
Text: In the present case the procedure of Hayman and Kinoshita was modified in that the final chromatography step was omitted in the preparation of the enzyme from bovine lens. The results are tabulated in Table I under the heading IN VITRO.

## COc1ccc2c(C(=O)N(C)CC(N)=O)c(F)ccc2c1C(F)(F)F [Example 1, N-[(Aminocarbonyl)methyl]-2-fluoro-6-methoxy-N-methyl-5-(trifluoromethyl)-1-naphthalenecarboxamide]
[1]; 3 mg/kg
  % Lowering of Sciatic Nerve Polyol Accumulation, Fructose: 69%
  % Lowering of Sciatic Nerve Polyol Accumulation, Sorbital: 50%
[1]; 6 mg/kg
  % Lowering of Sciatic Nerve Polyol Accumulation, Fructose: 87%
  % Lowering of Sciatic Nerve Polyol Accumulation, Sorbital: 77%
[1]; 9 mg/kg
  % Lowering of Sciatic Nerve Polyol Accumulation, Fructose: 94%
  % Lowering of Sciatic Nerve Polyol Accumulation, Sorbital: 79%
[1]; 12 mg/kg
  % Lowering of Sciatic Nerve Polyol Accumulation, Fructose: 98%
  % Lowering of Sciatic Nerve Polyol Accumulation, Sorbital: 78%
[1]; 20 mg/kg
  % Lowering of Sciatic Nerve Polyol Accumulation, Fructose: 105%
  % Lowering of Sciatic Nerve Polyol Accumulation, Sorbital: 84%
[2]; 10 mg/kg/day versus tolrestat at 9 mg/kg/day, sciatic nerve
  results in the sciatic nerve compared with tolrestat: comparable results
[2]; 5 mg/kg
  % Lowering dulcitol accumulation IN VIVO, D: 32%
  % Lowering dulcitol accumulation IN VIVO, L: N.S.
[2]; 10 mg/kg
  % Lowering dulcitol accumulation IN VIVO, D: 53% and 58%
  % Lowering dulcitol accumulation IN VIVO, L: N.S.
[2]; 12 mg/kg
  % Lowering dulcitol accumulation IN VIVO, D: 52%
  % Lowering dulcitol accumulation IN VIVO, L: N.S.
[2]; 14 mg/kg
  % Lowering dulcitol accumulation IN VIVO, D: 62%
  % Lowering dulcitol accumulation IN VIVO, L: N.S.
[2]; 15 mg/kg
  % Lowering dulcitol accumulation IN VIVO, D: 57%
  % Lowering dulcitol accumulation IN VIVO, L: N.S.
[2]; 19 mg/kg
  % Lowering dulcitol accumulation IN VIVO, D: 63%
  % Lowering dulcitol accumulation IN VIVO, L: N.S.
[2]; 24 mg/kg
  % Lowering dulcitol accumulation IN VIVO, D: 75%
  % Lowering dulcitol accumulation IN VIVO, L: N.S.
[3]; 10^-5 M
  inhibition at 10 µM: 1%
[3]; 10^-6 M
  inhibition at 1 µM: 0%

## COc1ccc2c(C(=S)N(C)CC(=O)O)cccc2c1C(F)(F)F [tolrestat, N-[[6-methoxy-5-(trifluoromethyl)-1-naphthalenyl]thioxomethyl]-N-methylglycine, reference compound]
[1]; 6 mg/kg
  % Lowering of Sciatic Nerve Polyol Accumulation, Fructose: 58%
  % Lowering of Sciatic Nerve Polyol Accumulation, Sorbital: 53%
[2]; 9 mg/kg
  % Lowering dulcitol accumulation IN VIVO, L: N.S.
